The series is described as follows: Ring-closing metathesis (C=C formation) of fluorous-tagged (FDIPES) terminal dienes with Hoveyda-Grubbs 2nd generation catalyst (typically 2 mol%, 1-5 mol%), usually with 1,4-benzoquinone (4-10 mol%); quench P(CH2OH)3/Et3N/silica. Particulars: MTBE, 2.0 mM, 55.0 °C.

`CC(C)[Si](CCC(F)(F)C(F)(F)C(F)(F)C(F)(F)C(F)(F)C(F)(F)C(F)(F)C(F)(F)F)(OC[C@H]1CC=CCOc2ccccc2COC(=O)N(S(=O)(=O)c2ccccc2[N+](=O)[O-])Cc2cccc(c2)CN1S(=O)(=O)c1ccccc1[N+](=O)[O-])C(C)C` (mixture of isomers) [28 (14+10; unchromatographed E/Z mixture)] came in with a ring closure, isolated yield (from C=CCOc1ccccc1COC(=O)N(Cc1cccc(CN([C@H](CC=C)CO[Si](CCC(F)(F)C(F)(F)C(F)(F)C(F)(F)C(F)(F)C(F)(F)C(F)(F)C(F)(F)F)(C(C)C)C(C)C)S(=O)(=O)c2ccccc2[N+](=O)[O-])c1)S(=O)(=O)c1ccccc1[N+](=O)[O-], 18-membered ring, 24.0 h) of 88%.
On to `CC(C)[Si](CCC(F)(F)C(F)(F)C(F)(F)C(F)(F)C(F)(F)C(F)(F)C(F)(F)C(F)(F)F)(OC[C@H]1CC=CCCN(S(=O)(=O)C(F)(F)F)Cc2ccccc2CN1S(=O)(=O)c1ccccc1[N+](=O)[O-])C(C)C` [26 (13+12; E/Z >98:<2)], for which, for the setting “from C=CCCN(Cc1ccccc1CN([C@H](CC=C)CO[Si](CCC(F)(F)C(F)(F)C(F)(F)C(F)(F)C(F)(F)C(F)(F)C(F)(F)C(F)(F)F)(C(C)C)C(C)C)S(=O)(=O)c1ccccc1[N+](=O)[O-])S(=O)(=O)C(F)(F)F, 12-membered ring, 6.0 h”, the ring closure, isolated yield worked out at 76%.
`CC(C)[Si](CCC(F)(F)C(F)(F)C(F)(F)C(F)(F)C(F)(F)C(F)(F)C(F)(F)C(F)(F)F)(OC[C@H]1COCC=CCOc2ccccc2COC(=O)N(S(=O)(=O)c2ccccc2[N+](=O)[O-])Cc2cccc(c2)CN1S(=O)(=O)c1ccccc1[N+](=O)[O-])C(C)C` [37 (17+10; E/Z 70:30)] registered a ring closure, isolated yield (from C=CCOC[C@H](CO[Si](CCC(F)(F)C(F)(F)C(F)(F)C(F)(F)C(F)(F)C(F)(F)C(F)(F)C(F)(F)F)(C(C)C)C(C)C)N(Cc1cccc(CN(C(=O)OCc2ccccc2OCC=C)S(=O)(=O)c2ccccc2[N+](=O)[O-])c1)S(=O)(=O)c1ccccc1[N+](=O)[O-], 20-membered ring, 60.0 h) of 78%.
For the compound `CC(C)[Si](CCC(F)(F)C(F)(F)C(F)(F)C(F)(F)C(F)(F)C(F)(F)C(F)(F)C(F)(F)F)(OC[C@@H]1COCC=CCC[C@@H](O[Si](C)(C)C(C)(C)C)[C@H](C)CN(S(=O)(=O)C(F)(F)F)Cc2ccccc2CN1S(=O)(=O)c1ccccc1[N+](=O)[O-])C(C)C` [34 (16+11; E/Z >98:<2)], where the note is “from C=CCC[C@@H](O[Si](C)(C)C(C)(C)C)[C@H](C)CN(Cc1ccccc1CN([C@@H](COCC=C)CO[Si](CCC(F)(F)C(F)(F)C(F)(F)C(F)(F)C(F)(F)C(F)(F)C(F)(F)C(F)(F)F)(C(C)C)C(C)C)S(=O)(=O)c1ccccc1[N+](=O)[O-])S(=O)(=O)C(F)(F)F, 17-membered ring, 16.0 h”, the ring closure, isolated yield stood at 61%.
On to `CC(C)[Si](CCC(F)(F)C(F)(F)C(F)(F)C(F)(F)C(F)(F)C(F)(F)C(F)(F)C(F)(F)F)(OC[C@H]1CC=CCC[C@@H](O[Si](C)(C)C(C)(C)C)[C@H](C)C(=O)N(S(=O)(=O)c2ccccc2[N+](=O)[O-])CC2=CC=C(CN1S(=O)(=O)c1ccccc1[N+](=O)[O-])S2)C(C)C` [3 (from 2; E/Z 65:35)], for which the ring closure, isolated yield (from C=CCC[C@@H](O[Si](C)(C)C(C)(C)C)[C@H](C)C(=O)N(Cc1ccc(CN([C@H](CC=C)CO[Si](CCC(F)(F)C(F)(F)C(F)(F)C(F)(F)C(F)(F)C(F)(F)C(F)(F)C(F)(F)F)(C(C)C)C(C)C)S(=O)(=O)c2ccccc2[N+](=O)[O-])s1)S(=O)(=O)c1ccccc1[N+](=O)[O-], 16-membered ring, 16.0 h) is 40%.
`COc1ccc([C@H]2COCC=CC[C@H](CO[Si](CCC(F)(F)C(F)(F)C(F)(F)C(F)(F)C(F)(F)C(F)(F)C(F)(F)C(F)(F)F)(C(C)C)C(C)C)N(S(=O)(=O)c3ccccc3[N+](=O)[O-])Cc3ccccc3CN(S(=O)(=O)c3ccccc3[N+](=O)[O-])C(=O)OC2)c(OC)c1` [24 (13+9; 2 steps RCM + denosylation; E/Z 60:40)] displayed a ring closure, isolated yield (from C=CCOC[C@@H](COC(=O)N(Cc1ccccc1CN([C@H](CC=C)CO[Si](CCC(F)(F)C(F)(F)C(F)(F)C(F)(F)C(F)(F)C(F)(F)C(F)(F)C(F)(F)F)(C(C)C)C(C)C)S(=O)(=O)c1ccccc1[N+](=O)[O-])S(=O)(=O)c1ccccc1[N+](=O)[O-])c1ccc(OC)cc1OC, 17-membered ring, 24.0 h) of 33%.
As to `COc1ccc([C@H]2COCC=CCOC[C@@H](CO[Si](CCC(F)(F)C(F)(F)C(F)(F)C(F)(F)C(F)(F)C(F)(F)C(F)(F)C(F)(F)F)(C(C)C)C(C)C)N(S(=O)(=O)c3ccccc3[N+](=O)[O-])Cc3ccccc3CN(S(=O)(=O)c3ccccc3[N+](=O)[O-])C(=O)OC2)c(OC)c1` [32 (16+9; E/Z >98:<2)], the ring closure, isolated yield (from C=CCOC[C@@H](COC(=O)N(Cc1ccccc1CN([C@@H](COCC=C)CO[Si](CCC(F)(F)C(F)(F)C(F)(F)C(F)(F)C(F)(F)C(F)(F)C(F)(F)C(F)(F)F)(C(C)C)C(C)C)S(=O)(=O)c1ccccc1[N+](=O)[O-])S(=O)(=O)c1ccccc1[N+](=O)[O-])c1ccc(OC)cc1OC, 19-membered ring, 36.0 h) came out at 88%.
Regarding `CC(C)[Si](CCC(F)(F)C(F)(F)C(F)(F)C(F)(F)C(F)(F)C(F)(F)C(F)(F)C(F)(F)F)(OC[C@@H]1COCC=CCOc2ccccc2COC(=O)N(S(=O)(=O)c2ccccc2[N+](=O)[O-])Cc2ccccc2CN1S(=O)(=O)c1ccccc1[N+](=O)[O-])C(C)C` [33 (16+10; E/Z >98:<2)], for the setting “from C=CCOC[C@@H](CO[Si](CCC(F)(F)C(F)(F)C(F)(F)C(F)(F)C(F)(F)C(F)(F)C(F)(F)C(F)(F)F)(C(C)C)C(C)C)N(Cc1ccccc1CN(C(=O)OCc1ccccc1OCC=C)S(=O)(=O)c1ccccc1[N+](=O)[O-])S(=O)(=O)c1ccccc1[N+](=O)[O-], 19-membered ring, 48.0 h”, the ring closure, isolated yield amounted to 75%.
In the case of `COc1ccc([C@H]2COCC=CC[C@H](CO[Si](CCC(F)(F)C(F)(F)C(F)(F)C(F)(F)C(F)(F)C(F)(F)C(F)(F)C(F)(F)F)(C(C)C)C(C)C)N(S(=O)(=O)c3ccccc3[N+](=O)[O-])Cc3cccc(c3)CN(S(=O)(=O)c3ccccc3[N+](=O)[O-])C(=O)OC2)c(OC)c1` [27 (14+9; E/Z 60:40)], the ring closure, isolated yield (from C=CCOC[C@@H](COC(=O)N(Cc1cccc(CN([C@H](CC=C)CO[Si](CCC(F)(F)C(F)(F)C(F)(F)C(F)(F)C(F)(F)C(F)(F)C(F)(F)C(F)(F)F)(C(C)C)C(C)C)S(=O)(=O)c2ccccc2[N+](=O)[O-])c1)S(=O)(=O)c1ccccc1[N+](=O)[O-])c1ccc(OC)cc1OC, 18-membered ring, 24.0 h) worked out at 56%.
Take `CC(C)[Si](CCC(F)(F)C(F)(F)C(F)(F)C(F)(F)C(F)(F)C(F)(F)C(F)(F)C(F)(F)F)(OC[C@H]1COCC=CCCN(S(=O)(=O)C(F)(F)F)Cc2cccc(c2)CN1S(=O)(=O)c1ccccc1[N+](=O)[O-])C(C)C` [38 (17+12; E 55% + Z 15%)]: the ring closure, isolated yield (from C=CCCN(Cc1cccc(CN([C@H](COCC=C)CO[Si](CCC(F)(F)C(F)(F)C(F)(F)C(F)(F)C(F)(F)C(F)(F)C(F)(F)C(F)(F)F)(C(C)C)C(C)C)S(=O)(=O)c2ccccc2[N+](=O)[O-])c1)S(=O)(=O)C(F)(F)F, 15-membered ring, 48.0 h) worked out at 70%.

For the origin of these results see publication PMC5488202.
